From patent US20030119904A1, “Acetyl L-carnitine salt with a dicarboxilic organic acid and process for preparing same” (priority 2001, published 2003)
Where a name gives a salt, the structure may show the parent alone.

Key:
[1] = Hygroscopicity: exposure of powder or granules to relative humidity at 25° C. for 24 hours; assay type: physicochemical
Method: By “hygroscopic” is meant herein the bothersome property shown by most of L-carnitine and alkanoyl L-carnitine salts (particularly by their “inner salts”) to undergo, when they occur as powders or granules, significant alteration of their flowability due to their clotting, agglomeration or even deliquescence, following exposure to an environment of relative humidity […] 50-60%, at 25° C., for 24 hours.

[2] = known from prior art / marketed product; cited from earlier work

Compound	hygroscopicity of the isolated solid ([1]; non-hygroscopic = withstands relative humidity of at least 60%, as powder or granules, without clotting, agglomeration or deliquescence)	relative humidity withstood without loss of flowability ([1]; powder or granules) [%]	hygroscopicity (prior art statement) [2]
CC(=O)O[C@H](CC(=O)O)C[N+](C)(C)C.O=C([O-])/C=C/C(=O)O [ALCFH, acetyl L-carnitine acid fumarate]	non-hygroscopic	≥ 60	
C[N+](C)(C)C[C@H](O)CC(=O)O.O=C([O-])/C=C/C(=O)O [L-carnitine acid fumarate]			non-hygroscopic
CC(=O)O[C@H](CC(=O)[O-])C[N+](C)(C)C [acetyl L-carnitine inner salt]			high hygroscopicity
